Measurements reported in ChEMBL document CHEMBL1201862, “PubChem BioAssay data set” (2004).
Blank lines part the entries; values can stand above or below the compound they belong to. Activity calls are given as the source filed them.

How the values were obtained:
[1] = biological target: T1, Sentrin-specific protease 8 (Homo sapiens, UniProt Q96LD8); format: functional;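 also: luminescence read-out of SENP8 inhibition, dose-response confirmation following an ultra-high-throughput screen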
T1 sequence (Q96LD8 whole entry): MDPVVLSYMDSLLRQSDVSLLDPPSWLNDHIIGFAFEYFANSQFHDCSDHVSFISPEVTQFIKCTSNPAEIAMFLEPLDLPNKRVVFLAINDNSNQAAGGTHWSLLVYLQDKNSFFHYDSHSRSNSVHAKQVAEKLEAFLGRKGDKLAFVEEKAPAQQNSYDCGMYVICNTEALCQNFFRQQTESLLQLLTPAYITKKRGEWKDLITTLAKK

[2] = biological target: T2, Mitochondrial peptide methionine sulfoxide reductase (Bos taurus, UniProt P54149); test: Absorbance-based biochemical high throughput dose response assay for activators of Methionine sulfoxide reductase A (MsrA).; format: functional
T2 sequence (P54149 whole entry): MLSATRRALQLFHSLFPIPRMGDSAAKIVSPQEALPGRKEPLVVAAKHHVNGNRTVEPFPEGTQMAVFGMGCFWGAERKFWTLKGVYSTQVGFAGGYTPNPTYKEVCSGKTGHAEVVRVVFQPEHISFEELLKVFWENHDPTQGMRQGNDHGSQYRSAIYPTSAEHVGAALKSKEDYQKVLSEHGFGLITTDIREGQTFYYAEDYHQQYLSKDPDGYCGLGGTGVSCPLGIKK

Caspase-3 = biological target: T3, Caspase-3 (Homo sapiens, UniProt P42574); format: functional;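 also: Dose-response selectivity test against caspase-3 for candidate inhibitors of sentrin-specific proteases (SENPs)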
T3 sequence (P42574 whole entry): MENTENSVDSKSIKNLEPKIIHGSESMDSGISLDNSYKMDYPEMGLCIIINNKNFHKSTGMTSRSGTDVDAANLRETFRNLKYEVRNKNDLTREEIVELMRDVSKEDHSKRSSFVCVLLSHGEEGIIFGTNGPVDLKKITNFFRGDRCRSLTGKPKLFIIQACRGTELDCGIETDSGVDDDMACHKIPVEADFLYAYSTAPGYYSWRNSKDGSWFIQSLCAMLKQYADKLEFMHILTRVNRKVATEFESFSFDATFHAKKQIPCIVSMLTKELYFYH

[3] = biological target: T4, Sentrin-specific protease 6 (Homo sapiens, UniProt Q9GZR1); format: functional;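 also: Luminescence-based dose-response confirmatory assay of SENP6 inhibition, following up an ultra-high-throughput screen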
T4 sequence (Q9GZR1 whole entry): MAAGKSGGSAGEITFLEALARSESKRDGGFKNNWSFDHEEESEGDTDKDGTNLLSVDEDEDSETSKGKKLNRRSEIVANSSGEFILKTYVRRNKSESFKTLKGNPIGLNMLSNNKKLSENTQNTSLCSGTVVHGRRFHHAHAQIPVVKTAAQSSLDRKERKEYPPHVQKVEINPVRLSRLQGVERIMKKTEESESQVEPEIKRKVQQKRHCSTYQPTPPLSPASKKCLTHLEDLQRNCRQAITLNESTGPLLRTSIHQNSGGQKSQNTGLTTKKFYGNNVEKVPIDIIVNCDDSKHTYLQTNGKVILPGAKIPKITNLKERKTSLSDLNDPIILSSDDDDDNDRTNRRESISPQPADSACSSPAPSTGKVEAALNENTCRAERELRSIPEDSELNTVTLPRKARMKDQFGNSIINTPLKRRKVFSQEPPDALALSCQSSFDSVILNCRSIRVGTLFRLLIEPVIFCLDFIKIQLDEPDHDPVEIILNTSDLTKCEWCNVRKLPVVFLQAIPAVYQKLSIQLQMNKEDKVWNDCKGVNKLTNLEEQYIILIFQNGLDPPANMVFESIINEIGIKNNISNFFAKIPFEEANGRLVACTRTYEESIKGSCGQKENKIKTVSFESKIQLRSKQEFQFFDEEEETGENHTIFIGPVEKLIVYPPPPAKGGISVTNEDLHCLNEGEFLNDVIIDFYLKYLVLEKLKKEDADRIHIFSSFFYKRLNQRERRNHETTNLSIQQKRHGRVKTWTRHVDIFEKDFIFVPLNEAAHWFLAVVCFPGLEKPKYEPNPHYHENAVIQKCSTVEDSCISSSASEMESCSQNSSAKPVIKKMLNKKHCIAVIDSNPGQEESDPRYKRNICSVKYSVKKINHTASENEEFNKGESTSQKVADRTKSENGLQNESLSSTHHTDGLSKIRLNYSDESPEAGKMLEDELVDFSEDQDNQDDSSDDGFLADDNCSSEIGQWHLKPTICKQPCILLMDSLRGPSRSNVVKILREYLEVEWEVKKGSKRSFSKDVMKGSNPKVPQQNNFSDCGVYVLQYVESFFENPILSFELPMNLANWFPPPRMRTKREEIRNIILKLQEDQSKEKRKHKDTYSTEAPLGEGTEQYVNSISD

[4] = biological target: T5, Sentrin-specific protease 7 (Homo sapiens, UniProt Q9BQF6); format: functional;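 also: Luminescence-based dose-response confirmation of ultra-high-throughput screening hits, measuring inhibition of SENP7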
T5 sequence (Q9BQF6 whole entry): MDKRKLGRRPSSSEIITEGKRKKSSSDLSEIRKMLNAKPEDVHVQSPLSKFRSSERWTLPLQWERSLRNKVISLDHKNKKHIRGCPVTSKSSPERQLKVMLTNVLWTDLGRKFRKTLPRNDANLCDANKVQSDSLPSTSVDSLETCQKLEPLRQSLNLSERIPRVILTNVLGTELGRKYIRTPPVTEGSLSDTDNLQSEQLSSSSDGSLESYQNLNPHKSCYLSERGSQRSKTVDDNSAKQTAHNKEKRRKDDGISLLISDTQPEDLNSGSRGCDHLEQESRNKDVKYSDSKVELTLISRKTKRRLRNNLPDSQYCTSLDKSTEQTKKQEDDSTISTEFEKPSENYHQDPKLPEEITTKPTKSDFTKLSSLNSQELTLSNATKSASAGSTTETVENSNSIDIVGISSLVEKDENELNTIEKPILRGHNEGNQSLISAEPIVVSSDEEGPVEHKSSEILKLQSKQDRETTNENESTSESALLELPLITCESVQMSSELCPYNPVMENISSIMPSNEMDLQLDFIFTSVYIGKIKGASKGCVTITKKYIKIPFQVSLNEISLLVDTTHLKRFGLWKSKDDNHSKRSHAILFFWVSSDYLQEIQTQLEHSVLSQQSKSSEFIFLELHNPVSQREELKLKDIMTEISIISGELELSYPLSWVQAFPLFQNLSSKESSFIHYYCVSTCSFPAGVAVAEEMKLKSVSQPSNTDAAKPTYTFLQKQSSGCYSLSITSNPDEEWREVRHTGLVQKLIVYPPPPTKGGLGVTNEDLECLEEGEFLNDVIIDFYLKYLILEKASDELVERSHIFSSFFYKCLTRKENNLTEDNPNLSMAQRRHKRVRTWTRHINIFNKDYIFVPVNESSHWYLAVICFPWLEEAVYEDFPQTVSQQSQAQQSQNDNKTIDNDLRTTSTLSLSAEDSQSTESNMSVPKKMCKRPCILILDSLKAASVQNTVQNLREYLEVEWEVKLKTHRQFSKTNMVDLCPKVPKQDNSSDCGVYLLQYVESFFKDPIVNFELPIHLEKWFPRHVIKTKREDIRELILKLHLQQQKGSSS

[5] = biological target: T6, Low molecular weight phosphotyrosine protein phosphatase (Homo sapiens, UniProt P24666); format: functional; settings: read-out: IC50_Mean;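 also: Dose-response confirmation assay measuring inhibition of LMPTP enzyme activity by fluorescence intensity read-out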
T6 sequence (P24666 whole entry): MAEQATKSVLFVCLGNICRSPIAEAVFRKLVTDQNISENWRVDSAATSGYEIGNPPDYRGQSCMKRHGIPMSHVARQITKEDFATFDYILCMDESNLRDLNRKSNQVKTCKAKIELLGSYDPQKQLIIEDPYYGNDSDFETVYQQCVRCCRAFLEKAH

Albumin = Albumin (Bos taurus, UniProt P02769); test: Counterscreen for inhibitors of T-cell receptor (TCR)-CD3 interaction: Fluorescence-based biochemical high throughput dose response assay to identify inhibitors of T-cell receptor (TCR)-CD3 interaction using a TAMRA-labeled BSA probe.; format: functional
Albumin, sequence (P02769 whole entry): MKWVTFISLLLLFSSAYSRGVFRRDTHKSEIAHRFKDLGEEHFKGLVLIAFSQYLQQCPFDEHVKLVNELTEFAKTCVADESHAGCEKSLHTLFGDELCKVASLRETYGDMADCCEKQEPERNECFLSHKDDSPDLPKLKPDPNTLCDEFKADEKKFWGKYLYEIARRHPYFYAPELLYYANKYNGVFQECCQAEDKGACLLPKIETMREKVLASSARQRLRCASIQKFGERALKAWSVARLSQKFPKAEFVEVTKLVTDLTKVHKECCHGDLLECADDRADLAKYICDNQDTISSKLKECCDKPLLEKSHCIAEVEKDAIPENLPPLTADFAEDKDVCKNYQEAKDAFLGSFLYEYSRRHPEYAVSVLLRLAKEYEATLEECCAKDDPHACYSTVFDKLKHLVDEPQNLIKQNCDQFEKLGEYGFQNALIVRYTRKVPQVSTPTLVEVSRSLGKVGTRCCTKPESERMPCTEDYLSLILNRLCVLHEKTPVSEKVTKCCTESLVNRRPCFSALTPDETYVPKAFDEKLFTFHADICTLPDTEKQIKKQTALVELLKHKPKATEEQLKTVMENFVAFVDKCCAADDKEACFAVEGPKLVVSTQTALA

[6] = biological target: T7, Ubiquitin-conjugating enzyme E2 N (Homo sapiens, UniProt P61088); format: functional;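 also: Dose-response confirmation in a TR-FRET assay detecting UBC13-driven polyubiquitin chain formation, inhibition measured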
T7 sequence (P61088 whole entry): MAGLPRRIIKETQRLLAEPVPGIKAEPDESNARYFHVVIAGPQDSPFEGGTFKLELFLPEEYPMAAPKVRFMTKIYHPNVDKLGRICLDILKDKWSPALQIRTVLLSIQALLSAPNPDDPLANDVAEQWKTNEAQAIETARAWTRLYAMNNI

[7] = biological target: T8, DNA repair protein RAD52 homolog (Homo sapiens, UniProt P43351); format: functional, biochemical
T8 sequence (P43351 whole entry): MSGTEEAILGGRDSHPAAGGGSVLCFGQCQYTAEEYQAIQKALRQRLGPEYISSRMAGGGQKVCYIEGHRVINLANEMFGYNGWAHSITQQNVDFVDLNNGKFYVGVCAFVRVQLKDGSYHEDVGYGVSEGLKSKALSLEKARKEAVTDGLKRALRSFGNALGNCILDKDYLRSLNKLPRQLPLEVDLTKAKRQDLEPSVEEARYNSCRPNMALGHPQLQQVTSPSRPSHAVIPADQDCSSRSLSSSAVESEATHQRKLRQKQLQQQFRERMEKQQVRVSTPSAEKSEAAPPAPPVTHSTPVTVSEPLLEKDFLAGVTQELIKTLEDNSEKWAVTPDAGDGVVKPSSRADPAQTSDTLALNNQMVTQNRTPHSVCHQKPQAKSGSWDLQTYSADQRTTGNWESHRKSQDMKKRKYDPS

[8] = CRF-BP/CRF-R2 complex antagonists, dose response, cell-based, uHTS hits, 384-well (AID 651639); format: functional, Homo sapiens; settings: read-out: IC50_Mean
[9] = biological target: T9, Corticotropin-releasing factor receptor 2/Corticotropin-releasing factor-binding protein (Homo sapiens, UniProt P24387+Q13324); test: Dose Response confirmation of uHTS hits for small molecule antagonists of the CRF-binding protein and CRF-R2 receptor complex.; format: functional; settings: read-out: IC50_Mean
T9 sequence (Q13324 whole entry): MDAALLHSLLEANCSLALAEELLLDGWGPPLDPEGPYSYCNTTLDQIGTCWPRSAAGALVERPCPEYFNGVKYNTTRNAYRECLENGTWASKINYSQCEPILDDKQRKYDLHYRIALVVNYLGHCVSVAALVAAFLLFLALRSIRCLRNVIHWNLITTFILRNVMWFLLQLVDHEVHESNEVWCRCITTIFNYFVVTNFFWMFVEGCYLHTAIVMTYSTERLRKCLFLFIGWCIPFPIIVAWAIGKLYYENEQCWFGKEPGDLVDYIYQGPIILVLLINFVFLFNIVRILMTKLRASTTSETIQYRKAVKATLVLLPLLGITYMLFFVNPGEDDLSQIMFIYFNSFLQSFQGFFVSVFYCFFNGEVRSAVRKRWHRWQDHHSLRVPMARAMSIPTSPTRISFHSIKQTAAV
T9 sequence (P24387 whole entry): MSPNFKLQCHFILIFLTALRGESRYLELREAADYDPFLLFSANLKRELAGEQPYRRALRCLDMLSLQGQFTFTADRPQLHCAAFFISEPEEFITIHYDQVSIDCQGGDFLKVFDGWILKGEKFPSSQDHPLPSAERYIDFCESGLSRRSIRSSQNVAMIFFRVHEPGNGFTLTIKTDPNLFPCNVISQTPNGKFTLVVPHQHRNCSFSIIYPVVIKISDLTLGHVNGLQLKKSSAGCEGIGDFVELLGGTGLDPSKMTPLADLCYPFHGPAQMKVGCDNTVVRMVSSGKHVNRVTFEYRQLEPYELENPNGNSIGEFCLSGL

[10] = biological target: T9, Corticotropin-releasing factor receptor 2/Corticotropin-releasing factor-binding protein; test: activators of CRF receptor 2 with binding protein – uHTS hits, confirmation (AID 602473); format: functional; settings: read-out: EC50_Mean
[11] = biological target: Tyrosine-protein phosphatase non-receptor type 5 (Homo sapiens, UniProt P54829); test: STEP phosphatase inhibitors, confirmation, biochemical, fluorescence intensity, uHTS hits (AID 602372); format: functional; settings: read-out: IC50_Mean
Tyrosine-protein phosphatase non-receptor type 5, sequence (P54829 whole entry): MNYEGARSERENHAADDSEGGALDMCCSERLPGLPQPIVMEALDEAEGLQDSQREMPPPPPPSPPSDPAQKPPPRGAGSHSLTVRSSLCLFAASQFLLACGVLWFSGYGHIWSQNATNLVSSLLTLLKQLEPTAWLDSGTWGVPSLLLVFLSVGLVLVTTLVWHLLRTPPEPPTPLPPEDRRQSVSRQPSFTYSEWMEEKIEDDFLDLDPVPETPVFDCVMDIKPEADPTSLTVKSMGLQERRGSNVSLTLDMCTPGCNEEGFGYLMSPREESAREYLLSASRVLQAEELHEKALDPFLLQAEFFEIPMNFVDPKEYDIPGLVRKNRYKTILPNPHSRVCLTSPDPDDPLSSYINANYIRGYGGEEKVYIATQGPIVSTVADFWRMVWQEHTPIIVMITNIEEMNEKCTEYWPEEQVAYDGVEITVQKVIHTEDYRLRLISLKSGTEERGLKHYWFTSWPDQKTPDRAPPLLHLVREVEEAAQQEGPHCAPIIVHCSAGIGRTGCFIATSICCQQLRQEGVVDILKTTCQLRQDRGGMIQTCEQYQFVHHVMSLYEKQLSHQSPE

[12] = biological target: Dual specificity protein phosphatase 3 (Homo sapiens, UniProt P51452); test: VHR phosphatase inhibition, dose response, selectivity assay for STEP inhibitor project, biochemical (AID 602374); format: functional; settings: read-out: IC50_Mean
Dual specificity protein phosphatase 3, sequence (P51452 whole entry): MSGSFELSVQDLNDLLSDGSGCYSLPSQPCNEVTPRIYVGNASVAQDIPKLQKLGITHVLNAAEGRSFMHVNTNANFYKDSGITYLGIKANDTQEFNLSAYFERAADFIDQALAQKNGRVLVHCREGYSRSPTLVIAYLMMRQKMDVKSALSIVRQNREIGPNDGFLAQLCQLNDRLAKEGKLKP

[13] = biological target: Tyrosine-protein phosphatase non-receptor type 11 (Homo sapiens, UniProt Q06124); test: SHP2 phosphatase inhibition, dose response, selectivity assay for STEP inhibitor project, biochemical (AID 602367); format: functional; settings: read-out: IC50_Mean
[14] = biological target: DNA repair and recombination protein RAD54-like (Homo sapiens, UniProt Q92698); test: inhibitors of human RAD54 branch migration, confirmation, biochemical, fluorescence, cherry-picked samples, dose series (AID 651657); format: functional
DNA repair and recombination protein RAD54-like, sequence (Q92698 whole entry): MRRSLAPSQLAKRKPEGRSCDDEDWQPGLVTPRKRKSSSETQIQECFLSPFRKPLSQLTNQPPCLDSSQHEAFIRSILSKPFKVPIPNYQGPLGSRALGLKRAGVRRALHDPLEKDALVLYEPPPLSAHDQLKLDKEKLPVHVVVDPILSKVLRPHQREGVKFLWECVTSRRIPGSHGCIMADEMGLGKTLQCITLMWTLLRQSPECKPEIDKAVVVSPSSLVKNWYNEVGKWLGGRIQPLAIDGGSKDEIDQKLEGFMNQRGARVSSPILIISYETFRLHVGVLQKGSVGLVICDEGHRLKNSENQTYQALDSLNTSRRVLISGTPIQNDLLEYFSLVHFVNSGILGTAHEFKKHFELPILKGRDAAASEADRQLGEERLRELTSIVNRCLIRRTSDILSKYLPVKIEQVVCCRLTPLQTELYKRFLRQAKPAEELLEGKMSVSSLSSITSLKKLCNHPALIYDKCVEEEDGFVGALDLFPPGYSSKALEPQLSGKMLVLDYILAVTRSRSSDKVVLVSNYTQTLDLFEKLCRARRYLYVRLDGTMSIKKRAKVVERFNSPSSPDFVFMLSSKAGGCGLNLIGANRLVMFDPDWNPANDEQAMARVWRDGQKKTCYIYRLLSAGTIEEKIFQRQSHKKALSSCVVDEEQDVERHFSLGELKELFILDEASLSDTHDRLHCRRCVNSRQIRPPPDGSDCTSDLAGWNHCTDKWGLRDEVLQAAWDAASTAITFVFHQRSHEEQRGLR

[15] = biological target: DNA (cytosine-5)-methyltransferase 1 (Homo sapiens, UniProt P26358); test: DNMT1 methyltransferase inhibitors, confirmation, biochemical, fluorescent molecular beacon (AID 602386); format: functional
DNA (cytosine-5)-methyltransferase 1, sequence (P26358 whole entry): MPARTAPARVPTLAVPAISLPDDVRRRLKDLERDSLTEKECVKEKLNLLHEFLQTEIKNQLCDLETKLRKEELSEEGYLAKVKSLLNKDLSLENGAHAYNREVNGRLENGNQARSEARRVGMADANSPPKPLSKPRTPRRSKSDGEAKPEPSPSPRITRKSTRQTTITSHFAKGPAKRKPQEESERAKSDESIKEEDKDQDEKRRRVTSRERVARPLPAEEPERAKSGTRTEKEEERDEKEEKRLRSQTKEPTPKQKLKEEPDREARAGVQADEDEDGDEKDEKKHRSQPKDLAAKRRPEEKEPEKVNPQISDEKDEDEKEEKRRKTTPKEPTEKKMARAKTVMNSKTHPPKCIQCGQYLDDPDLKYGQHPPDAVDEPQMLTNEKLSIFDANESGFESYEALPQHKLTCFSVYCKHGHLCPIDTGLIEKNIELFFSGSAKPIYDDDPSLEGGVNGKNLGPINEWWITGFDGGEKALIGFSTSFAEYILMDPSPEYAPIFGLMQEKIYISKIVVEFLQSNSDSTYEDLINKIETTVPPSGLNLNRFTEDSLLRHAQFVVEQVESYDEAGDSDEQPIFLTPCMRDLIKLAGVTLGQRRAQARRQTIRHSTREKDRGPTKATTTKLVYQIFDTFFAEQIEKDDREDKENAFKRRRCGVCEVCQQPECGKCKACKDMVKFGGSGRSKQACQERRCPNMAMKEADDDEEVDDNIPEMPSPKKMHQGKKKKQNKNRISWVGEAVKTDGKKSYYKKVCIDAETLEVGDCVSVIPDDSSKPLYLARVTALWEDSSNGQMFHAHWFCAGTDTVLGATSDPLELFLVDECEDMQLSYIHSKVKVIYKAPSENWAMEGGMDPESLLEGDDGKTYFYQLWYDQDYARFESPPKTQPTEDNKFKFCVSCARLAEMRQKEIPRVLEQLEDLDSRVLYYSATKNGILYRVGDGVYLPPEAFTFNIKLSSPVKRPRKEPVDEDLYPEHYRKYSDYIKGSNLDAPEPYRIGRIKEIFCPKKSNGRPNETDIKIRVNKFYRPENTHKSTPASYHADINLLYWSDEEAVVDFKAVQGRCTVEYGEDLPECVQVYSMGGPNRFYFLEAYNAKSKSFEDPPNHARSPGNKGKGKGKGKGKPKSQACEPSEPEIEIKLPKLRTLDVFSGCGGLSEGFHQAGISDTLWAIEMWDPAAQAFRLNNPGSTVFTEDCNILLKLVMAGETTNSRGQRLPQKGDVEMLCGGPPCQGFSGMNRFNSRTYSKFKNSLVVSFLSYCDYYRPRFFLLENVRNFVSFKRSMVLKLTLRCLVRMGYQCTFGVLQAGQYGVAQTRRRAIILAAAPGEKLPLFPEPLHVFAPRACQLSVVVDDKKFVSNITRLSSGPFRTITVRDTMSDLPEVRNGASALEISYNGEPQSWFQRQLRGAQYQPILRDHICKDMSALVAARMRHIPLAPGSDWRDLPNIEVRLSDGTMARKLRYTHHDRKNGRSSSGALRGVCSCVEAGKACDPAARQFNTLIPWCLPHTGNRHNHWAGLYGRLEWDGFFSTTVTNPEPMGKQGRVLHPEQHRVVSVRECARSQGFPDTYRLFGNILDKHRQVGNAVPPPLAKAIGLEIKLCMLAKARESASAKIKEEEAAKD

SMILES: COc1ccc(S(=O)(=O)N2CCOCC2)cc1NC(=O)COC(=O)c1ccc([N+](=O)[O-])s1
IC50 [1]: 6.06 µM (active)
EC50 [2]: 40 µM (inactive)
IC50 (Caspase-3): 17.1 µM (active)
IC50 [3]: 6.27 µM (active)
IC50 [4]: 9.28 µM (active)

SMILES: Cc1ccc(-c2nc3cc(C(=O)NCCCn4ccnc4)ccc3c(O)c2O)cc1
IC50 [5]: 16 µM (active)
IC50 (Albumin): > 94.1 µM (inactive)
IC50 [6]: > 20 µM (inactive)
AC50 [7]: 7.05 µM (active)

SMILES: O=C(COC(=O)C1(c2ccc(F)cc2)CCCC1)NCc1ccc2c(c1)OCO2
IC50 [8]: 11.1 µM (active)
IC50 [9]: < 0.368 µM (active)
EC50 [10]: > 53 µM (inactive)

SMILES: O=C1Nc2c(Cl)cc(Cl)cc2C1=O
IC50 [15]: 11.8 µM (active)
EC50 [2]: > 104 µM (inactive)

The remaining lines, values ahead:

IC50 [11]: 20.8 µM (inactive)
IC50 [12]: 1.03 µM (active)
IC50 [13]: 2.07 µM (active)
SMILES: COc1cc(Cl)ccc1N=C(S)N(CCCN1CCOCC1)Cc1cn(C)c2ccccc12

AC50 [14]: 70.3 µM (active)
SMILES: O=C(Nc1ccccc1)c1cc(S(=O)(=O)N2CCOCC2)cs1
